These results are taken from US20230023559A1, “ARYLMETHYLENE HETEROCYCLIC COMPOUNDS AS KV1.3 POTASSIUM SHAKER CHANNEL BLOCKERS” (D. E. Shaw Research, LLC, priority 2019, published 2023).

In one assay the target is T1, Kv1.3 potassium channel (Homo sapiens, UniProt P22001).
T1 construct: expressed in transfected cells
The assay is described as follows: Kv1.3 potassium channel blocker activity, automated whole-cell patch clamp (Patchliner). The class given is cell-based. As to conditions: CHO-K1 cells stably expressing Kv1.3; whole cell current inhibition; read-out: Kv1.3_IC50. The gist of the method: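 CHO-K1 cells stably expressing Kv1.3, automated whole-cell patch clamp. Currents evoked by 100 ms steps from −90 mV holding to +40 mV at 0.1 Hz, sampled at 10 kHz unfiltered, P/4 leak subtraction; peak current inhibition measured, compound incubation ≤10 s between pulse trains.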

The target of another assay is hERG channel (Homo sapiens, UniProt Q12809). The assay can be described thus: hERG electrophysiology, automated whole-cell patch clamp (Patchliner). In general terms: Block of hERG is tested as a sign of cardiac risk.
Chain of hERG channel (Q12809 whole entry): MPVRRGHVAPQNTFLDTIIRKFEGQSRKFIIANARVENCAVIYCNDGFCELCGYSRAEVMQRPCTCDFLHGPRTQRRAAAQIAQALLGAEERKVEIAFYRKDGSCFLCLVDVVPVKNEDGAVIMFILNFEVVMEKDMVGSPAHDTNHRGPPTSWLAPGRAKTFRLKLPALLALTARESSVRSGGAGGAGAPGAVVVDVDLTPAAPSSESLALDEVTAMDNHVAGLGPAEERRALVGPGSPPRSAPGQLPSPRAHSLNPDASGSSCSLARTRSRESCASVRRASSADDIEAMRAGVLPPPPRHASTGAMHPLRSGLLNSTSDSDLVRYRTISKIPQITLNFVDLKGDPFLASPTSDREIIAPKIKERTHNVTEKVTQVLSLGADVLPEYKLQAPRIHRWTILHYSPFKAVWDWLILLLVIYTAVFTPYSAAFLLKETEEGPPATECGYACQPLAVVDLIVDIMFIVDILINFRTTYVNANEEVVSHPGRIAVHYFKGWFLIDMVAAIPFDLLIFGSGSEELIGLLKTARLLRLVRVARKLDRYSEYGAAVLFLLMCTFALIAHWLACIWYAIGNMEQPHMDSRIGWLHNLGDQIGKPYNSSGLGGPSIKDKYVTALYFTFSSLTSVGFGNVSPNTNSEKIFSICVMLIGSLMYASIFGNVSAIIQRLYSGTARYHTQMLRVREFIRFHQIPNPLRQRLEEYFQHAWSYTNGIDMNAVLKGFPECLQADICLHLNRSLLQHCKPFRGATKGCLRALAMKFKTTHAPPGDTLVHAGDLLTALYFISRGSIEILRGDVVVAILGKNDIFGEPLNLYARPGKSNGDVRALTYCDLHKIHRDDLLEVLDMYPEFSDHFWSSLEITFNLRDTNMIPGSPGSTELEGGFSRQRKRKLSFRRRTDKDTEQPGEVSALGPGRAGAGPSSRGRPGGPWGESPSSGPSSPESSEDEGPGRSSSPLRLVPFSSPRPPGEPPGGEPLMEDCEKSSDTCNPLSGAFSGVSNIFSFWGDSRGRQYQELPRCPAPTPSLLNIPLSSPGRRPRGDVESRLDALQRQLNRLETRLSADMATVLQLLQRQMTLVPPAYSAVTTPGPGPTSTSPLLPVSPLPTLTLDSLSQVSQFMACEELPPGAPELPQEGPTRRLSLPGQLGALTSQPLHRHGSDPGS

T1 sequence (P22001 whole entry): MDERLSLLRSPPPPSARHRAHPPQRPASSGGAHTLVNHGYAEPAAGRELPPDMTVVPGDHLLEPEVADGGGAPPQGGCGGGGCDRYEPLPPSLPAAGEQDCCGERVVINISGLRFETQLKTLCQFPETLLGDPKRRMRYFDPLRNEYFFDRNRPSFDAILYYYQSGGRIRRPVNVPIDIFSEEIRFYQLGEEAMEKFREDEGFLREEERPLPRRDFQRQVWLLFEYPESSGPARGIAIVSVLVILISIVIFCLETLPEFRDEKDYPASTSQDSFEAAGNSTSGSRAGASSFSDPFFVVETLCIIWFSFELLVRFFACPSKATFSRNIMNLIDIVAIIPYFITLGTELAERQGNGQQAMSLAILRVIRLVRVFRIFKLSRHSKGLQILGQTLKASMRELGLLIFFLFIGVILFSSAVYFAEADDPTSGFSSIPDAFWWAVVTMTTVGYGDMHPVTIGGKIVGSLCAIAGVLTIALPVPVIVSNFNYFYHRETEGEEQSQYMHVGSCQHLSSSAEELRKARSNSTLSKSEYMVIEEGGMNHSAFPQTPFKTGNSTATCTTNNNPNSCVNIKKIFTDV

In the case of `CC(C)C(N)C(=O)N1CCC([C@@H](N)c2cc(Cl)c(Cl)cc2O)CC1` (stereo partly drawn) [Compound 156, 2-amino-1-[4-[(R)-amino(4,5-dichloro-2-hydroxyphenyl)methyl]piperidin-1-yl]-3-methylbutan-1-one trifluoroacetic acid], the IC50 at Kv1.3 potassium channel was less than 10 µM; at hERG channel, greater than 30 µM.
On the same counts, the results for `O=C([C@@H]1CCNC1)N1CCC([C@@H](O)c2cc(Cl)c(Cl)cc2O)CC1` (single isomer, unassigned) [Compound 116] are less than 0.5 µM and greater than 30 µM.
The matching figures for `N[C@@H](c1cc(Cl)c(Cl)cc1O)C1CCN(C(=O)[C@H]2C[C@@H](O)C2)CC1` [Compound 138, 2-[(R)-amino([1-[(1S,3S)-3-hydroxycyclo-butanecarbonyl]piperidin-4-yl])methyl]-4,5-dichlorophenol trifluoroacetic acid]: less than 10 µM and greater than 30 µM.
On the same counts, the results for `CC1(O)CC(C(=O)N2CCC([C@@H](N)c3cc(Cl)c(Cl)cc3O)CC2)C1` (stereo partly drawn) [Compound 163, 2-[(R)-amino[1-(3-hydroxy-3-methylcyclo-butanecarbonyl)piperidin-4-yl]methyl]-4,5-dichlorophenol] are less than 10 µM and greater than 30 µM.
Take `N[C@@H](c1cc2ccccc2cc1O)C1CCN(C(=O)[C@H](O)CO)CC1` [Compound 189, (2R)-1-[4-[(R)-amino(3-hydroxynaphthalen-2-yl)methyl]piperidin-1-yl]-2,3-dihydroxypropan-1-one Trifluoroacetic Acid]: the IC50 is less than 0.5 µM at Kv1.3 potassium channel and greater than 30 µM at hERG channel.
The matching figures for `C[C@H]1C[C@H]([C@@H](N)c2cc(Cl)c(Cl)cc2O)CCN1C(=O)[C@H](O)CO` [Compound 326, (2R)-1-[(2S,4R)-4-[(R)-amino(4,5-dichloro-2-hydroxyphenyl)methyl]-2-methylpiperidin-1-yl]-2,3-dihydroxypropan-1-one Trifluoroacetic Acid]: less than 0.5 µM and greater than 30 µM.
Consider `NC(c1cc(Cl)c(Cl)cc1O)C1CCNCC1` (centres unmarked) [Compound 1, 2-(amino(piperidin-4-yl)methyl)-4,5-dichlorophenol Trifluoroacetic Acid], for which the 50% inhibitory concentration (IC50) on Kv1.3 potassium channel is less than 10 µM; on hERG channel, greater than 30 µM.
On to `Cc1cc(O)c([C@H](N)C2CCN(C(=O)c3ccc4[nH]c(=O)oc4c3)CC2)cc1Cl` [Compound 271, 6-[4-[(R)-amino(5-chloro-2-hydroxy-4-methylphenyl)methyl]piperidine-1-carbonyl]-3H-1,3-benzoxazol-2-one], for which, on Kv1.3 potassium channel, the IC50 is less than 10 µM.
On the same count and under the same terms, in the case of `Cc1cc(O)c([C@H](N)C2CCN(C(=O)c3ccc4c(c3)CC(=O)N4)CC2)cc1Cl` [Compound 267, 5-[4-[(R)-amino (5-chloro-2-hydroxy-4-methylphenyl)methyl]piperidine-1-carbonyl]-1,3-dihydroindol-2-one trifluoroacetic acid] it was less than 0.5 µM; in that of `Oc1cc(Cl)c(Cl)cc1C(C1CCNCC1)n1cccn1` (centres unmarked) [Compound 13, 4,5-dichloro-2-[piperidin-4-yl(1H-pyrazol-1-yl)methyl]phenol], less than 10 µM; in that of `CN1C[C@@H](C(=O)N2CCC([C@@H](N)c3cc(Cl)c(Cl)cc3O)CC2)OCC1=O` (single isomer, unassigned; isomer 2) [Compound 278], less than 10 µM.
Consider `N[C@@H](c1cc(Cl)c(Cl)cc1O)C1CCN(C(=O)C2CNCC2(F)F)CC1` (stereo partly drawn) [Compound 113, (4-((R)-amino(4,5-dichloro-2-hydroxyphenyl)methyl)piperidin-1-yl)(4,4-difluoropyrrolidin-3-yl)methanone], for which the IC50 at Kv1.3 potassium channel is less than 10 µM.
With `Cc1cc(O)c([C@H](N)C2CCN(C(=O)c3ccc4oc(=O)[nH]c4c3)CC2)cc1Cl` [Compound 258, 5-[4-[(R)-amino(5-chloro-2-hydroxy-4-methylphenyl)methyl]piperidine-1-carbonyl]-3H-1,3-benzoxazol-2-one formic acid], the IC50 at Kv1.3 potassium channel was less than 0.5 µM.
Still for that read-out and setting: the same measure for `NC(c1c(O)ccc(Cl)c1Cl)C1CCNCC1` (centres unmarked) [Compound 86, 2-[amino(piperidin-4-yl)methyl]-3,4-dichlorophenol Bis(Trifluoroacetic Acid)]: less than 30 µM; for `N[C@@H](c1cc(Cl)c(Cl)cc1O)[C@@H]1CCCN(C(=O)[C@H](O)CO)C1` [Compound 329, (2R)-1-[(3R)-3-[(R)-amino(4,5-dichloro-2-hydroxyphenyl)methyl]piperidin-1-yl]-2,3-dihydroxypropan-1-one Trifluoroacetic Acid]: less than 10 µM; for `N[C@@H](c1cc(Cl)c(Cl)cc1O)C1CC2CC1CN2C(=O)[C@H](O)CO` (stereo partly drawn) [Compound 315, (2R)-1-(5-((R)-amino(4,5-dichloro-2-hydroxyphenyl)methyl)-2-azabicyclo[2.2.1]heptan-2-yl)-2,3-dihydroxypropan-1-one Trifluoroacetic Acid]: less than 10 µM.
On to `CNC(c1cc(Cl)c(Cl)cc1O)C1CCN(C(=O)C(O)CO)CC1` (centres unmarked) [Compound 184, 1-[4-[(4,5-dichloro-2-hydroxyphenyl)(methylamino)methyl]piperidin-1-yl]-2,3-dihydroxypropan-1-one Trifluoroacetic Acid], for which the 50% inhibitory concentration (IC50) at Kv1.3 potassium channel is less than 10 µM.
Same read-out and setting: in the case of `O=C1CCCN1C(c1cc(Cl)c(Cl)cc1O)C1CCNCC1` (centres unmarked) [Compound 29, 1-((4,5-dichloro-2-hydroxyphenyl)(piperidin-4-yl)methyl)pyrrolidin-2-one Trifluoroacetic Acid] it was less than 10 µM; in that of `Cc1cc(CN2CCC(C(N)c3cc(Cl)c(Cl)cc3O)CC2)no1` (centres unmarked) [Compound 58, 2-[amino([1-[(5-methyl-1,2-oxazol-3-yl)methyl]piperidin-4-yl])methyl]-4,5-dichlorophenol Trifluoroacetic Acid], less than 10 µM.
As to `N[C@@H](c1cc(Cl)c(Cl)cc1O)[C@H]1CCCN(C(=O)[C@H](O)CO)CC1` (single isomer, unassigned; isomer 2) [Compound 334], at Kv1.3 potassium channel, the IC50 was less than 10 µM.
As for `CN[C@@H](c1cc(Cl)c(Cl)cc1O)C1CCN(C(=O)[C@H](O)CO)CC1` [Compound 337, (2R)-1-[4-[(R)-(4,5-dichloro-2-hydroxyphenyl)(methylamino)methyl]piperidin-1-yl]-2,3-dihydroxypropan-1-one], the IC50 on Kv1.3 potassium channel is less than 10 µM.
The same measure, in the same setting: in the case of `N[C@H](c1cc(Cl)c(Cl)cc1O)C1CC2CC1CN2C(=O)[C@H](O)CO` (stereo partly drawn) [Compound 316, (2R)-1-(5-((S)-amino(4,5-dichloro-2-hydroxyphenyl)methyl)-2-azabicyclo[2.2.1]heptan-2-yl)-2,3-dihydroxypropan-1-one Trifluoroacetic Acid] it was less than 10 µM.
`N[C@H](c1cc(Cl)c(Cl)cc1O)[C@@H]1CCCN(C(=O)[C@H](O)CO)C1` [Compound 330, (2R)-1-[(3R)-3-[(S)-amino(4,5-dichloro-2-hydroxyphenyl)methyl]piperidin-1-yl]-2,3-dihydroxypropan-1-one Trifluoroacetic Acid]: the IC50 on Kv1.3 potassium channel is greater than 10 µM.
Consider `NC(c1cc(Cl)c(Cl)cc1O)C1CCN(CC(F)F)CC1` (centres unmarked) [Compound 62, 2-(amino(1-(2,2-difluoroethyl)piperidin-4-yl)methyl)-4,5-dichlorophenol Trifluoroacetic Acid], for which the IC50 at Kv1.3 potassium channel is less than 10 µM.
On the same count and under the same terms, the same measure for `O=C(NC(c1cc(Cl)c(Cl)cc1O)C1CCNCC1)C(F)(F)F` (centres unmarked) [Compound 22, N-((4,5-dichloro-2-hydroxyphenyl)(piperidin-4-yl)methyl)-2,2,2-trifluoroacetamide]: less than 10 µM.
Still for that read-out and setting: the same measure for `CC[C@@H](N)C(=O)N1CCC([C@@H](N)c2cc(Cl)c(Cl)cc2O)CC1` [Compound 88, (R)-2-amino-1-(4-((R)-amino(4,5-dichloro-2-hydroxyphenyl)methyl)piperidin-1-yl)butan-1-one trifluoroacetic acid]: less than 0.5 µM; for `Cc1cc(O)c([C@H](N)C2CCN(C(=O)c3ccc4c(c3)NC(=O)C4)CC2)cc1Cl` [Compound 263, 6-[4-[(R)-amino (5-chloro-2-hydroxy-4-methylphenyl)methyl]piperidine-1-carbonyl]-1,3-dihydroindol-2-one trifluoroacetic acid]: less than 0.5 µM.
Still for that read-out and setting: in the case of `CN1CC(C(=O)N2CCC([C@@H](N)c3cc(Cl)c(Cl)cc3O)CC2)OCC1=O` (stereo partly drawn) [Compound 268, 6-[4-[(R)-amino(4,5-dichloro-2-hydroxyphenyl)methyl]piperidine-1-carbonyl]-4-methylmorpholin-3-one trifluoroacetic acid] it was less than 0.5 µM; in that of `N[C@@H](c1cc(Cl)c(Cl)cc1O)C1CCN(C(=O)c2c[nH]c(=O)[nH]2)CC1` [Compound 254, 4-[4-[(R)-amino(4,5-dichloro-2-hydroxyphenyl)methyl]piperidine-1-carbonyl]-1,3-dihydroimidazol-2-one trifluoro-acetic acid], less than 0.5 µM.
Consider `N[C@H](c1cc(Cl)c(Cl)cc1O)[C@H]1CCN(C(=O)[C@H](O)CO)C1` (single isomer, unassigned; isomer 1) [Compound 308], for which the IC50 at Kv1.3 potassium channel is less than 10 µM.
The same measure, in the same setting: in the case of `CN[C@H](c1cc(Cl)c(Cl)cc1O)C1CCN(C(=O)[C@H](O)CO)CC1` (single isomer, unassigned) [Compound 336] it was less than 10 µM.
Still for that read-out and setting: the same measure for `O=C([C@H]1CCNC1)N1CCC[C@H]([C@@H](O)c2c(O)ccc(Cl)c2Cl)CC1` (single isomer, unassigned; isomer 4) [Compound 130]: less than 10 µM; for `N[C@H](c1c(O)cc(Cl)c(Cl)c1F)C1CCN(C(=O)[C@H](O)CO)CC1` [Compound 287, (R)-1-(4-((S)-amino(3,4-dichloro-2-fluoro-6-hydroxyphenyl)methyl)piperidin-1-yl)-2,3-dihydroxypropan-1-one]: less than 10 µM; for `C[C@@H](N)C(=O)N1CCC([C@H](N)c2cc(Cl)c(Cl)cc2O)CC1` (single isomer, unassigned) [Compound 87]: less than 10 µM.

What is called IC50 is the concentration that gives 50% inhibition.
